{"source": "patent US12433959B2", "about": "“Injectable hydrogels for controlled release of immunomodulatory compounds” (THE BOARD OF TRUSTEES OF THE LELAND STANFORD JUNIOR …, priority 2018, dated 2025)", "test": "Hydrodynamic radius (MALS) and diffusivity of cargo in PBS", "type": "physicochemical", "conditions": "for diffusivity value, D: corresponding to RH", "description": "Values closer to 1 indicate more similar diffusivities of the OVA and Poly(I:C) (n=3). […] Values closer to 1 indicate that cargo diffusivity is limited by self-diffusion of the hydrogel (n=3).\nOVA's hydrodynamic radius (RH) is 3.2 nm, corresponding to a diffusivity value, D, of 76.6 μm^2/s. Poly(I:C)'s was measured to be much larger, with an RH of 34.2 nm, using multi-angle light scattering (MALS), corresponding to a D value of 7.2 μm^2/s. This difference in size results in OVA having an over 10 times greater diffusivity than Poly(I:C) in PBS (FIG. 3C). […] The measured diffusivities for all experiments can be found in FIG. 16. With a standard injection volume in rodents (100 μL) and the release characteristics of PNP hydrogels, these OVA diffusivities correlate to release timeframes of approximately 2 and 3 weeks, respectively. Further, the ratio of OVA to Poly(I:C) diffusivities (DOVA/DPoly(I:C)) was 3.3 in the 1:5 gel, and only 1.4 in the 2:10 gel (FIG. 3C). When comparing the diffusivity of OVA to the self-diffusion of the hydrogel matrix (DOVA/DGel), which was determined by tracking the diffusivity of HPMC-C12 within the hydrogel, the ratio was 6.5 in the 1:5 gel, but only 4.7 in the 2:10 gel, while the ratio of Poly(I:C) to the hydrogel self-diffusion (DPoly(I:C)/DGel) was around 2 for the 1:5 gel and 3.5 for the 2:10 gel (FIG. 3D). […] The diffusion of OVA, however, is more limited by hydrogel self-diffusion in the 2:10 gel and appears to be small enough to diffuse more freely in the 1:5 gel (FIG. 3B). Accordingly, the diffusivity of both OVA and Poly(I:C) is restricted by the self-diffusion of the hydrogel network in the 2:10 gel and are thus similar to one another, enabling sustained co-delivery of the two cargo, despite their large difference in physicochemical properties.", "data": [{"molecule": "Polyinosinic-polycytidylic acid [Poly(I:C)]", "values": [{"measurement": "hydrodynamic radius (RH)", "result": 34.2, "unit": "nm"}, {"measurement": "size of Poly(I:C) relative to OVA", "result": 10, "unit": "times larger"}, {"measurement": "diffusivity value, D", "setting": "in PBS", "result": 7.2, "unit": "μm^2/s"}]}, {"molecule": "ovalbumin (protein, UniProt P01012 2-386, looked up, commonly used model antigen) Ovalbumin: GSIGAASMEFCFDVFKELKVHHANENIFYCPIAIMSALAMVYLGAKDSTRTQINKVVRFDKLPGFGDSIEAQCGTSVNVHSSLRDILNQITKPNDVYSFSLASRLYAEERYPILPEYLQCVKELYRGGLEPINFQTAADQARELINSWVESQTNGIIRNVLQPSSVDSQTAMVLVNAIVFKGLWEKAFKDEDTQAMPFRVTEQESKPVQMMYQIGLFRVASMASEKMKILELPFASGTMSMLVLLPDEVSGLEQLESIINFEKLTEWTSSNVMEERKIKVYLPRMKMEEKYNLTSVLMAMGITDVFSSSANLSGISSAESLKISQAVHAAHAEINEAGREVVGSAEAGVDAASVSEEFRADHPFLFCIKHIATNAVLFFGRCVSP", "values": [{"measurement": "hydrodynamic radius (RH)", "result": 3.2, "unit": "nm"}, {"measurement": "diffusivity of OVA relative to Poly(I:C)", "setting": "in PBS", "result": "over 10 times greater"}, {"measurement": "diffusivity value, D", "setting": "in PBS", "result": 76.6, "unit": "μm^2/s"}]}]}
